Experimental data taken from PMC12042267, “Expanding the Family of Monosubstituted 15-Membered Pyridine-Based Macrocyclic Ligands for Mn(II) Complexation in the Context of MRI” (Inorganic Chemistry, 2025).

Experiments:
[1] = Cyclic voltammetry of Mn(II) complexes in aqueous solution; format: physicochemical; conditions: aqueous 0.15 M KCl; for ΔE (peak separation): 100 mV s^–1; for Eox (oxidation peak) / Ered (reduction peak): 100 mV s^–1 scan rate; for Eox (oxidation peak) / Ered (reduction peak) / E1/2: vs Ag/AgCl
Protocol: All solvents (VWR International, Penta) and chemicals were purchased from commercial sources (Acros Organics, Merck) and used as received. 2-(Chloromethyl)pyridine hydrochloride and 2-(chloromethyl)benzimidazole were prepared according to the previously described procedures.[31],[32] The parent ligand 15-pyN3O2 was synthesized as previously described in the literature.[28],[33] Mass spectra were collected using an LCQ Fleet mass spectrometer (Thermo Scientific, Waltham, MA) equipped with an electrospray ion source and a three-dimensional (3D) ion-trap detector in the positive/negative mode (see SI, Figures S1 and S2). ^1H and ^13C NMR spectra were obtained using a 400-MR NMR spectrometer (Varian, Palo, Alto, CA) at 25 °C. The multiplicity of the signals is indicated as follows: s, singlet; d, doublet; t, triplet; m, multiplet; and bs, broad singlet. Deuterated solvent chloroform-d (99.9% of D) was purchased from Sigma-Aldrich and used as received. The atom numbering schemes used for the interpretation of NMR data are shown in Scheme 2. The carbon and hydrogen atoms were assigned according to the spectra obtained from the two-dimensional correlation experiments ^1H–^1H gs-COSY, ^1H–^13C gs-HMQC, and ^1H–^13C gs-HMBC (see SI, Figures S3–S10). Cyclic voltammetry was performed on a CHI600C electrochemical analyzer (CH Instruments, Inc., Austin, TX). IR spectra were measured on a Jasco FT/IR-4700 spectrometer (Jasco, Easton, MD) using the ATR technique on a diamond plate in the spectral range 4000–400 cm^–1 (see SI Figure S11). A conventional electrochemical three-electrode-type cell with a glassy carbon working electrode, a platinum wire auxiliary electrode, and either Ag/Ag^+ reference electrode (0.01 M AgNO3 in 0.1 M tetrabutylammonium perchlorate (TBAP) in CH3CN) or Ag/AgCl reference electrode filled with 3 M KCl solution was used during the measurements with the scan rate of 100 mV s^–1. The measurements were performed in an argon atmosphere either in 0.1 M TBAP solution in CH3CN or in 0.15 M aqueous solution of KCl as a supporting electrolyte with a scan rate of 100 mV s^–1 and at 1.5 mM concentration of the complexes. The internal ferrocene/ferrocenium standard (E1/2 = 0.459 V vs Ag/Ag^+ electrode, ΔE = 77 mV) was employed for measurements in CH3CN.
Thus, we carried out CV experiments on an aqueous solution of the Mn(II) complexes in 0.15 M KCl. […] The cyclic voltammogram of MnL3 is similar, showing an oxidation peak at Eox = +1004 mV and a reduction peak at Ered = 782 mV (E1/2 = 893 mV vs Ag/AgCl, ΔE = 222 mV) (Figure S23). The large separation between the oxidation and reduction peaks (ΔE) is characteristic of a quasi-reversible system. The irreversibility of the Mn(II)/Mn(III) redox process is quite common due to the lack of ligand-field stabilization for the high-spin d^5 configuration of Mn(II), with a consequent large inner-sphere contribution to electron transfer.[57] Even larger separation between the oxidation and reduction peaks was observed when the complexes were measured in acetonitrile (Figures S24 and S25 in SI).

[2] = fixed during the fitting procedure ref 28; cited from earlier work

ΔE (peak separation) [1] | Eox (oxidation peak) [1] | Ered (reduction peak) [1] | E1/2 [1] | SMILES | AO/ℏ (scalar coupling constant) [2]
144 mV | +994 mV | +850 mV | 922 mV | O.[Mn+2].c1ccc(CN2CCOCCOCCNCc3cccc(n3)C2)nc1 [MnL2] | 38.6 ^e 10^6 rad s^–1
222 mV | +1004 mV | 782 mV | 893 mV | O.[Mn+2].c1cc2nc(c1)CN(Cc1nc3ccccc3[nH]1)CCOCCOCCNC2 [MnL3] | 38.6 ^e 10^6 rad s^–1
